Results taken from patent US11890288B2, “Sulfonamide or sulfinamide compound having effect of inducing BRD4 protein degradation and pharmaceutical use thereof” (MITSUBISHI TANABE PHARMA CORPORATION, priority 2020, dated 2024).

How the values were obtained:
[1] = system: human prostate cancer LNCaP cells; experiment: Cytotoxic action on LNCaP cells (WST-8, 96 hr); assay type: cell-based; conditions: 96 hr culture
Protocol: The cytotoxic action of the compound of the present invention against human cancer cells was evaluated in vitro. In this experiment, (+)-JQ1 (Nature volume 468, pages 1067-1073 (23 Dec. 2010)) known to have an inhibitory activity on the binding of BRD4 protein and a ligand therefor was used as a positive control drug. Respective cells were suspended in 10% FBS/RPMI1640, seeded in a 96 well plate and cultured at 5% CO2, 37° C. overnight. A test compound dissolved in DMSO was diluted with 10% FBS/RPMI1640 and added and the cells were further cultured for 96 hr. After culturing, the viable cell number was measured using a cell number measurement WST-8 kit (Kishida Chemical Co., Ltd.). As a control, the measurement was performed under conditions free of the test compound. The cytotoxic activity of the compound of the present invention against human prostate cancer LNCaP cells is shown in IC50 value in Table 1. The IC50 value is a concentration of the compound showing 50% cell survival rate when the cell survival rate thereof under compound untreated condition is 100%. It was calculated from the straight line connecting the cell survival rate at two points enclosing the 50% cell survival rate and the compound concentration. In addition, the cytotoxic activity against respective cancer cells of human acute myeloid leukemia MV-4-11 cell, human chronic myeloid leukemia K562 cell, human multiple myeloma MM.1S cell, human diffuse large B-cell lymphoma SU-DHL-6 cell, human T-cell leukemia Jurkat cells, human Burkitt lymphoma Raji cell, human castration-resistant prostate cancer PC-3 cell, human AR-V7 positive castration-resistant prostate cancer 22Rv1 cell, human ovarian cancer A2780 cell, human cisplatin-resistant ovarian cancer SK-OV-03 cell, human bladder cancer 5637 cell, human breast cancer ZR-75-1 cell, human triple negative breast cancer MDA-MB-231 cell, human uterus cervix cancer HeLa cell, human uterine sarcoma MES-SA cell, human stomach cancer SNU-16 cell, human non-small cell lung cancer NCI-H2126 cell, human EGFRT790M mutation-positive non-small cell lung cancer NCI-H1975 cell, human small cell lung cancer NCI-H82 cell, human large cell lung cancer NCI-H460 cell, human colon cancer HCT116 cell, human glioma U-87 MG cell, human pancreatic cancer BxPC-3 cell, human liver cancer HLF cell, human bile duct cancer HuCCT1 cell, human renal cell cancer 786-O cell, and human fibrosarcoma HT1080 cell is shown in IC50 value in Table 2.

BRD4 protein = BRD4 protein (Homo sapiens (Human), UniProt O60885); experiment: BRD4 protein degradation inducing action in LNCaP cells (immunofluorescence, 6 hr); assay type: cell-based; conditions: anti-BRD4 fluorescence intensity
Protocol: The degradation inducing action of the compound of the present invention on BRD4 proteins in cancer cells was evaluated in vitro using human prostate cancer LNCaP cells. LNCaP cells were suspended in 10% FBS/RPMI1640, seeded in a 96 well Cell carrier plate (Perkin Elmer) and cultured at 5% CO2, 37° C. overnight. A test compound dissolved in DMSO was diluted with 10% FBS/RPMI1640 and added and the cells were further cultured for 6 hr. After culturing, the cells were immobilized with 4% para-formaldehyde/PBS and further subjected to a permeation treatment with 0.25% Triton X-100/PBS. Thereafter, the cells were blocked with 10% BSA/PBS, Anti-BRD4 (Sigma-Aldrich) solution was added and the cells were incubated at 4° C. overnight. Furthermore, Goat anti-Rabbit IgG(H+L) Cross-Adsorbed Secondary Antibody, Alexa Fluor 546 (Thermo Fisher Scientific) solution, 0.5 μg/mL Hoechst 33342 (Sigma-Aldrich), and 14 μM Acti-Stain 555 Fluorescent Phalloidin (Cytoskeleton) were added. After incubation for 1 hr, BRD4 protein amount was measured by Operetta (Perkin Elmer) as fluorescence intensity (excitation: 560 nm, emission: 572 nm). The BRD4 protein degradation inducing activity of the compound of the present invention in LNCaP cells is shown in DC50 value in Table 3. The DC50 value is a concentration of the compound showing 50% fluorescence intensity when the fluorescence intensity thereof under compound untreated condition is 100%. It was calculated from the straight line connecting the fluorescence intensity at two points enclosing the 50% fluorescence intensity and the compound concentration.

DC50 (BRD4 protein) [nM] | SMILES | IC50 [1] [nM]
0.046 | CCc1ccc(NS(=O)(=O)c2ccc(CCNC(=O)c3cnc(-c4ccc(C5=N[C@@H](CC(=O)OC)c6nnc(C)n6-c6sc(C)c(C)c65)cc4)cn3)cc2)c2[nH]cc(C#N)c12 [Example 107, methyl [(6S)-4-(4-{5-[(2-{4-[(3-cyano-4-ethyl-1H-indol-7-yl)sulfamoyl]phenyl}ethyl)carbamoyl]pyrazin-2-yl}phenyl)-2,3,9-trimethyl-6H-thieno[3,2-f][1,2,4]triazolo[4,3-a][1,4]diazepin-6-yl]acetate] | 0.26
0.26 | CCc1ccc(NS(=O)(=O)c2ccc(CNC(=O)c3cc(F)c(-c4ccc(C5=N[C@@H](CC(=O)OC)c6nnc(C)n6-c6sc(C)c(C)c65)cc4)cc3C)cc2)c2[nH]cc(C#N)c12 [Example Compound 120, methyl [(6S)-4-{4′-[({4-[(3-cyano-4-ethyl-1H-indol-7-yl)sulfamoyl]phenyl}methyl)carbamoyl]-2′-fluoro-5′-methyl[1,1′-biphenyl]-4-yl}-2,3,9-trimethyl-6H-thieno[3,2-f][1,2,4]triazolo[4,3-a][1,4]diazepin-6-yl]acetate] | 0.41
0.13 | COC(=O)C[C@@H]1N=C(c2ccc(-c3ccc(C(=O)NCc4ccc(S(=O)(=O)Nc5ccc(C)c6c(C#N)c[nH]c56)cc4C)cc3)cc2)c2c(sc(C)c2C)-n2c(C)nnc21 [Example 94, methyl [(6S)-4-{4′-[({4-[(3-cyano-4-methyl-1H-indol-7-yl)sulfamoyl]-2-methylphenyl}methyl)carbamoyl][1,1′-biphenyl]-4-yl}-2,3,9-trimethyl-6H-thieno[3,2-f][1,2,4]triazolo[4,3-a][1,4]diazepin-6-yl]acetate] | 0.42
0.054 | CCc1ccc(NS(=O)(=O)c2ccc(CNC(=O)c3cnc(-c4ccc(C5=N[C@@H](CC(=O)OC)c6nnc(C)n6-c6sc(C)c(C)c65)cc4)cn3)cc2)c2[nH]cc(C#N)c12 [Example 105, methyl [(6S)-4-(4-{5-[({4-[(3-cyano-4-ethyl-1H-indol-7-yl)sulfamoyl]phenyl}methyl)carbamoyl]pyrazin-2-yl}phenyl)-2,3,9-trimethyl-6H-thieno[3,2-f][1,2,4]triazolo[4,3-a][1,4]diazepin-6-yl]acetate] | 0.13
0.25 | Cc1sc2c(c1C)C(c1ccc(-c3ccc(C(=O)NCc4ccc(S(=O)(=O)Nc5ccc(C)c6c(C#N)c[nH]c56)cc4)c(F)c3)cc1)=N[C@@H](CC(=O)OC(C)(C)C)c1nnc(C)n1-2 [Example Compound 139, t-butyl [(6S)-4-{4′-[({4-[(3-cyano-4-methyl-1H-indol-7-yl)sulfamoyl]phenyl}methyl)carbamoyl]-3′-fluoro[1,1′-biphenyl]-4-yl}-2,3,9-trimethyl-6H-thieno[3,2-f][1,2,4]triazolo[4,3-a][1,4]diazepin-6-yl]acetate] | 0.45
0.085 | COC(=O)C[C@@H]1N=C(c2ccc(-c3ccc(C(=O)NCCc4ccc(S(=O)(=O)Nc5ccc(C)c6c(C#N)c[nH]c56)cc4)c(F)c3F)cc2)c2c(sc(C)c2C)-n2c(C)nnc21 [Example 100, methyl [(6S)-4-{4′-[(2-{4-[(3-cyano-4-methyl-1H-indol-7-yl)sulfamoyl]phenyl}ethyl)carbamoyl]-2′,3′-difluoro[1,1′-biphenyl]-4-yl}-2,3,9-trimethyl-6H-thieno[3,2-f][1,2,4]triazolo[4,3-a][1,4]diazepin-6-yl]acetate] | 0.16

Continued, compound first:

SMILES | DC50 (BRD4 protein) [nM] | IC50 [1] [nM]
COC(=O)C[C@@H]1N=C(c2ccc(-c3ccc(C(=O)NCc4ccc(S(=O)(=O)Nc5ccc(C)c6c(Cl)c[nH]c56)cc4)cc3)cc2)c2c(sc(C)c2C)-n2c(C)nnc21 [Example 8, methyl [(6S)-4-{4′-[({4-[(3-chloro-4-methyl-1H-indol-7-yl)sulfamoyl]phenyl}methyl)carbamoyl][1,1′-biphenyl]-4-yl}-2,3,9-trimethyl-6H-thieno[3,2-f][1,2,4]triazolo[4,3-a][1,4]diazepin-6-yl]acetate] | 2.4 | 2.8
COC(=O)C[C@@H]1N=C(c2ccc(-c3ccc(C(=O)N[C@H](C)c4ccc(S(=O)(=O)Nc5ccc(C)c6c(C#N)c[nH]c56)cc4)c(F)c3)cc2)c2c(sc(C)c2C)-n2c(C)nnc21 [Example 69, methyl [(6S)-4-(4′-{[(1R)-1-{4-[(3-cyano-4-methyl-1H-indol-7-yl)sulfamoyl]phenyl}ethyl]carbamoyl}-3′-fluoro[1,1′-biphenyl]-4-yl)-2,3,9-trimethyl-6H-thieno[3,2-f][1,2,4]triazolo[4,3-a][1,4]diazepin-6-yl]acetate] | 0.056 | 0.12
COC(=O)C[C@@H]1N=C(c2ccc(-c3ccc(C(=O)NCc4ccc(S(=O)(=O)Nc5ccc(C)c6c(C#N)c[nH]c56)cc4)cc3)cc2)c2c(sc(CO)c2C)-n2c(C)nnc21 [Example 55, methyl [(6S)-4-{4′-[({4-[(3-cyano-4-methyl-1H-indol-7-yl)sulfamoyl]phenyl}methyl)carbamoyl][1,1′-biphenyl]-4-yl}-2-(hydroxymethyl)-3,9-dimethyl-6H-thieno[3,2-f][1,2,4]triazolo[4,3-a][1,4]diazepin-6-yl]acetate] | 1.4 | 3
CCc1ccc(NS(=O)(=O)c2ccc([C@@H](C)NC(=O)c3ccc(-c4ccc(C5=N[C@@H](CC(=O)OC)c6nnc(C)n6-c6sc(C)c(C)c65)cc4)cc3)cc2)c2[nH]cc(C#N)c12 [Example Compound 127, methyl [(6S)-4-(4′-{[(1R)-1-{4-[(3-cyano-4-ethyl-1H-indol-7-yl)sulfamoyl]phenyl}ethyl]carbamoyl}[1,1′-biphenyl]-4-yl)-2,3,9-trimethyl-6H-thieno[3,2-f][1,2,4]triazolo[4,3-a][1,4]diazepin-6-yl]acetate] | 0.024 | 0.032
Cc1sc2c(c1C)C(c1ccc(-c3ccc(C(=O)NCc4ccc(S(=O)(=O)Nc5ccc(C)c6c(C#N)c[nH]c56)cc4)cc3)cc1)=N[C@@H](CC(=O)OC(C)(C)C)c1nnc(C)n1-2 [Example 63, t-butyl [(6S)-4-{4′-[({4-[(3-cyano-4-methyl-1H-indol-7-yl)sulfamoyl]phenyl}methyl)carbamoyl][1,1′-biphenyl]-4-yl}-2,3,9-trimethyl-6H-thieno[3,2-f][1,2,4]triazolo[4,3-a][1,4]diazepin-6-yl]acetate] | 0.23 | 0.45
COC(=O)C[C@@H]1N=C(c2ccc(-c3ccc(C(=O)N[C@H](C)c4ccc(S(=O)(=O)Nc5ccc(C)c6c(C#N)c[nH]c56)cc4)c(C)c3)cc2)c2c(sc(C)c2C)-n2c(C)nnc21 [Example 86, methyl [(6S)-4-(4′-{[(1R)-1-{4-[(3-cyano-4-methyl-1H-indol-7-yl)sulfamoyl]phenyl}ethyl]carbamoyl}-3′-methyl[1,1′-biphenyl]-4-yl)-2,3,9-trimethyl-6H-thieno[3,2-f][1,2,4]triazolo[4,3-a][1,4]diazepin-6-yl]acetate] | 0.059 | 0.35
COC(=O)C[C@@H]1N=C(c2ccc(N3CC[C@@H](C(=O)NCc4ccc(S(=O)(=O)Nc5ccc(C)c6c(C#N)c[nH]c56)cc4)C3)cc2)c2c(sc(C)c2C)-n2c(C)nnc21 [Example 4, methyl [(6S)-4-(4-{(3R)-3-[({4-[(3-cyano-4-methyl-1H-indol-7-yl)sulfamoyl]phenyl}methyl)carbamoyl]pyrrolidin-1-yl}phenyl)-2,3,9-trimethyl-6H-thieno[3,2-f][1,2,4]triazolo[4,3-a][1,4]diazepin-6-yl]acetate] | 38 | 16
